Test results taken from the NIST ThermoML archive (doi:10.1016/j.jct.2005.09.004).
Numbers after ± are expanded uncertainties.

What was measured:
[1] = for surface tension liquid-gas: Drop volume; for mass density: 101.33 kPa, Liquid
[2] = refractive index (Na D-line) (dimensionless); settings: 101.33 kPa, Liquid, Standard Abbe refractometry

| surface tension liquid-gas ([1]; 283.15 K) | mass density ([1]; 283.15 K) | surface tension liquid-gas ([1]; 298.15 K) | mass density ([1]; 298.15 K) | surface tension liquid-gas ([1]; 313.15 K) | mass density ([1]; 313.15 K) | refractive index ([2]; 283.15 K) | refractive index ([2]; 298.15 K) | refractive index ([2]; 313.15 K) | Compound |
| --- | --- | --- | --- | --- | --- | --- | --- | --- | --- |
| 26.28 ± 0.3 mN/m | 787.97 ± 0.3 kg/m3 | 24.73 ± 0.28 mN/m | 773.65 ± 0.32 kg/m3 | 22.93 ± 0.26 mN/m | 759.59 ± 0.33 kg/m3 | 1.43182 ± 0.00031 | 1.42348 ± 0.00031 | 1.41498 ± 0.00031 | C1CCCCC1 [cyclohexane] |
| 24.14 ± 0.3 mN/m | 754.85 ± 0.77 kg/m3 | 22.06 ± 0.28 mN/m | 739.74 ± 0.79 kg/m3 | 19.76 ± 0.25 mN/m | 724.71 ± 0.81 kg/m3 | 1.41197 ± 0.00037 | 1.40335 ± 0.00037 | 1.39451 ± 0.00037 | C1CCCC1 [cyclopentane] |
| 35.09 ± 0.39 mN/m | 1045.16 ± 0.14 kg/m3 | 33.23 ± 0.37 mN/m | 1027.85 ± 0.12 kg/m3 | 31.23 ± 0.35 mN/m | 1010.99 ± 0.11 kg/m3 | 1.42721 ± 0.00031 | 1.41992 ± 0.00031 | 1.41256 ± 0.00031 | C1COCCO1 [1,4-dioxane] |
